Series [1] deals with T1, human α7 nAChR (Homo sapiens, UniProt P36544).
T1 construct: expressed in transfected cells; host or cells: Xenopus oocytes
In words: Two-electrode voltage clamping of human α7 nAChR expressed in Xenopus oocytes (net-charge / peak current relative to 60 μM ACh). Format: cell-based. The following applies: for Potentiated response: 30 μM test compound + 10 μM PNU-120596 co-application; for Potentiated response / Relative response: relative to 60 μM ACh control, mean ± SEM, N ≥ 4; for Relative response: net-charge response to 30 μM test compound alone; for functional classification at α7 nAChR: 30 μM alone and with 10 μM PNU-120596, partial agonist = net charge > 1/10th ACh control. The protocol:
Electrophysiology: The panel of compounds synthesized was assayed using human α7 nAChR expressed in Xenopus oocytes and two-electrode voltage clamping. The partial agonism activity was evaluated, quantified as net-charge for 30 μM applications of compounds, measured relative to the control response to applications of 60 μM ACh. The induction of PAM-sensitive desensitization was detected as the net-charge responses when compounds were co-applied with the PAM PNU-120596 (30 μM compound+10 μM PNU-120596), measured relative to responses to 60 μM ACh applied alone. […] It is a unique property of α7 orthosteric agonist-induced currents that they vary systematically in the relationship between peak current and net charge as a function of the effective concentration applied (Papke & Papke (2002) Br. J. Pharm. 137: 49-61; Papke & Thinschmidt (1998) Neurosci. Let. 256: 163-166). This was due to the concentration-dependent desensitization of the receptors, which is likely to be associated with high levels of agonist binding site occupancy (Williams et al., (2011) J. Gen. Physiol. 137: 369-384) and is observed even when agonists are rapidly applied to small cells (Williams et al., (2012) Mol. Pharmacol. 82: 746-759) or acutely dissociated neurons (Uteshev et al., (2002) Brain Res. 948: 33-46). The control ACh concentration used for these experiments is roughly the EC80 for the net-charge responses.
By normalizing both the peak currents and net-charge measurements of the drug responses at the probe concentration of 30 μM (FIG. 3B) to those of the ACh control, the relationship between the probe concentration and the EC for each of the drugs was estimated (Papke, R. L. (2005) Life Sci.). At a concentration where the ratio of the normalized measures equaled one, the drug would be at the same effective concentration as 60 μM ACh.
Electrophysiology: New compounds were assayed for activity with the α7 nAChR expressed in Xenopus oocytes using two-electrode voltage clamping as previously described in Papke et al., (2014) J. Pharmacol. Experimental Therap. 350: 665-680, incorporated herein by reference in its entirety, and compared to responses evoked by 60 μM Ach (FIGS. 5 and 6). The compound set was assayed at a concentration of 30 μM to provide a standard comparison benchmark.
Based on earlier experience this concentration is high enough to provide an observable response and low enough to avoid possible complications such as channel block. The net-charge response for each compound application is reported relative to those for ACh control applications. Data were expressed as the mean ±S.E.M. from at least four oocytes for each experiment and were plotted by Kaleidagraph (Abelbeck Software, Reading, Pa.).
For orientation: Two-electrode voltage clamp is typically applied to oocytes expressing channels or transporters.

Series [2] deals with α3β4 nAChR (Homo sapiens, UniProt P30926+P32297). The series is described as follows: Receptor subtype specificity: α3β4 nAChR activation / antagonism. Format: cell-based. Particulars: 100 μM.
Sequence of α3β4 nAChR (P32297 32-505): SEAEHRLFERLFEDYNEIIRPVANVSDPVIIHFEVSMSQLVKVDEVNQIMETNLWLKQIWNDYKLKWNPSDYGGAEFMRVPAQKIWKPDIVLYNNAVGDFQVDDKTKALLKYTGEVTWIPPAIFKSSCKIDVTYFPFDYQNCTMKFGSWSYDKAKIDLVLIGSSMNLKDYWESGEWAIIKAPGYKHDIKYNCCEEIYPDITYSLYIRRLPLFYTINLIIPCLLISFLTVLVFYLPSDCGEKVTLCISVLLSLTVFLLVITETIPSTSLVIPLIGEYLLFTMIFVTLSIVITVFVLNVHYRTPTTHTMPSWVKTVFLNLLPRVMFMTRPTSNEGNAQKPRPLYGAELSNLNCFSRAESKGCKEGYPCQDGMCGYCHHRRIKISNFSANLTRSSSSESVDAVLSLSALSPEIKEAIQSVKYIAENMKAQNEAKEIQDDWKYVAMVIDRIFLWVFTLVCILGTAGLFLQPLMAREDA
Sequence of α3β4 nAChR (P30926 22-498): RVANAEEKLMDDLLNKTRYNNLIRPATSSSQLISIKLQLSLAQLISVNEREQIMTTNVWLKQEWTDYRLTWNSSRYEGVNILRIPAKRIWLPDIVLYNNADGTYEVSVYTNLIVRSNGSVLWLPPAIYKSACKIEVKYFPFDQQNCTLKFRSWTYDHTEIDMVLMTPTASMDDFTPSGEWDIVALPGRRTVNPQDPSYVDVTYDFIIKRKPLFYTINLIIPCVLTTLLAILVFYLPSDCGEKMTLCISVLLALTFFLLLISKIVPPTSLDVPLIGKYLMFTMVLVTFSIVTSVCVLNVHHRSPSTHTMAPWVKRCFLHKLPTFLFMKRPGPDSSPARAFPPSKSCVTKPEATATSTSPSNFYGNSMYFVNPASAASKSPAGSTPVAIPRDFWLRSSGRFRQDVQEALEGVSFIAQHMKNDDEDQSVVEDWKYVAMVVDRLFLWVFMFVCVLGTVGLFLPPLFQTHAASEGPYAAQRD
Series [3] addresses α4β2 nAChR (Homo sapiens, UniProt P17787+P43681). The series is described as follows: Receptor subtype specificity: α4β2 nAChR activation / antagonism. Format: cell-based. The following applies: for antagonist activity at α4β2: 100 μM.
In series [4] the test system is LPS-stimulated secretion of TNF-α in rat cultured microglia. The following applies: cited from earlier work.
Series [5] deals with mouse pain models. Particulars: formalin- and acetic acid-induced nociceptive conditions, chronic constrictive nerve injury; cited from earlier work.

Sequence of α4β2 nAChR (P43681 29-627 limits assumed): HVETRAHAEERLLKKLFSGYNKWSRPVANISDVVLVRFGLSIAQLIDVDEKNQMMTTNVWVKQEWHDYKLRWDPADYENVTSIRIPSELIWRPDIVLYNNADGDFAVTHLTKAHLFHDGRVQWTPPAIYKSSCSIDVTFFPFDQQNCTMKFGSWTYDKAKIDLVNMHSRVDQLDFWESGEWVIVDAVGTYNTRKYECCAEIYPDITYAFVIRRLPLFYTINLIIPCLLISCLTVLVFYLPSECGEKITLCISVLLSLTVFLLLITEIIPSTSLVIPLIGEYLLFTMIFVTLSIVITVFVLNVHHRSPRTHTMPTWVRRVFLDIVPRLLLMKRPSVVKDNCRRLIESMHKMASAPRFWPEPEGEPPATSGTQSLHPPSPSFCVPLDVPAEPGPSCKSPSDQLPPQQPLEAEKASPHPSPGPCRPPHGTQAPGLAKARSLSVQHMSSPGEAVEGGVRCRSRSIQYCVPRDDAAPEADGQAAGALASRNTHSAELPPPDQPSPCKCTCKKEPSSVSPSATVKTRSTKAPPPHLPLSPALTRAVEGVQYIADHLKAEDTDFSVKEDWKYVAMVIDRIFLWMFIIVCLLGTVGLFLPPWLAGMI
Sequence of α4β2 nAChR (P17787 26-502): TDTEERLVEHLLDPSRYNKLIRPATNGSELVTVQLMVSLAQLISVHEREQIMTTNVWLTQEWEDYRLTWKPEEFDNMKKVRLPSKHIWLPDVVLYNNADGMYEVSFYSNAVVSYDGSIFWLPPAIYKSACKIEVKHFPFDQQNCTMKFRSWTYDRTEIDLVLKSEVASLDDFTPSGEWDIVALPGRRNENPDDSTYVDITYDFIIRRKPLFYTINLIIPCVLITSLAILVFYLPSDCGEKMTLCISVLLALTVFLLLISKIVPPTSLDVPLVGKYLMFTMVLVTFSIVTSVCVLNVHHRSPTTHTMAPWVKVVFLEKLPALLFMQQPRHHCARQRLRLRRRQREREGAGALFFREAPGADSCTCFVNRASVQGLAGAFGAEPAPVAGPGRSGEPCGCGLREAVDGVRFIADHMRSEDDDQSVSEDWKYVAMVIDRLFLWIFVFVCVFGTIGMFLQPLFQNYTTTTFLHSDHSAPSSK
T1 sequence (P36544 23-502): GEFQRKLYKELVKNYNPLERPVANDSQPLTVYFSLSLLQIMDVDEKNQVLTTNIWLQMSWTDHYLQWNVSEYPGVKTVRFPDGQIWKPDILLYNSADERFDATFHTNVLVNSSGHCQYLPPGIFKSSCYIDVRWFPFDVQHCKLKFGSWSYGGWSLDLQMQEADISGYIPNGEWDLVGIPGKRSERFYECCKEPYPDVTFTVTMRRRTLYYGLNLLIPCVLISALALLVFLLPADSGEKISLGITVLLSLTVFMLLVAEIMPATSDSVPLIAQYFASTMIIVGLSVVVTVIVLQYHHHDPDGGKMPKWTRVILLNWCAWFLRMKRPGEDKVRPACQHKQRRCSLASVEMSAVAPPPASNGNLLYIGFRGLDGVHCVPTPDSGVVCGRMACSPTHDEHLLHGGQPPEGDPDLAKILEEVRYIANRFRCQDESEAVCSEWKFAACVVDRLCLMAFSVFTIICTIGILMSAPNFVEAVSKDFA

As a reminder, the melting point is the temperature of the solid-liquid transition. Consider `CCN1CCN(c2ccc(OC)cc2)CC1`, for which the melting point is 56.6 to 57.8 °C.

With `CCN1CCN(c2cccc(O)c2)CC1`, the melting point was in the range of 150.3 to 151.6 °C.

The compound `CCN1CCN(c2ccc3ccccc3c2)CC1` gave a melting point of 69.1 to 70 °C.

For the compound `CCN1CCN(c2ccc(Br)cc2)CC1`, the melting point fell in the range of 85 to 85.5 °C.

Compound `CCN1CCN(c2ccc(C(F)(F)F)cc2)CC1` [Compound 1n, 1-ethyl-4-(4-(trifluoromethyl)phenyl)piperazine] had a melting point of 56.3 to 56.5 °C. In addition, in series [1], the Potentiated response turned out to be 1.4 ± 0 and the Relative response was 0.000 ± 0.004.

In turn, `CCN1CCN(c2ccc(F)cc2)CC1` [Compound 1r, 1-ethyl-4-(4-fluorophenyl)piperazine] returned a melting point of 30 to 30.5 °C. In addition, in series [1], the Potentiated response is 0.0 ± 0.0 and the Relative response is 0.000 ± 0.003.

`CC[N+]1(CC)CCN(c2ccc(C)cc2)CC1.[I-]` [Compound 2a, 1,1-diethyl-4-p-tolylpiperazin-1-ium iodide] yielded a melting point of 147.4 to 148.8 °C. For the same compound, in series [1], the “functional classification at α7 nAChR” value is listed as “candidate silent agonists”, the Potentiated response stood at 3.6 ± 2.0 and the Relative response was 0.011 ± 0.003.

As for `CC[N+]1(CC)CCN(c2cccc(C)c2)CC1.[I-]` [Compound 2d, 1,1-diethyl-4-m-tolylpiperazin-1-ium iodide], the melting point was 144 to 145 °C. For the same compound, in series [1], the “functional classification at α7 nAChR” value was “no significant activity as either partial agonists or as silent agonists”, the Potentiated response amounted to 0.2 ± 0.1 and the Relative response is 0.001 ± 0.000.

On to `CC[N+]1(CC)CCN(c2cccc(OC)c2)CC1.[I-]` [Compound 2g, 1,1-diethyl-4-(3-methoxyphenyl)piperazin-1-ium iodide], for which, in series [1], the “functional classification at α7 nAChR” value is given as “no significant activity as either partial agonists or as silent agonists”, the Potentiated response came out at 0.6 ± 0.2 and the Relative response is listed as 0.011 ± 0.011. In addition, the “PAM-dependent response compared to the parent unsubstituted diEPP” value in series [1] (co-application with PNU-120596) stood at 50%. The “antagonism of α3β4” value in series [2] is given as “significant antagonism”.

For `CC[N+]1(CC)CCN(c2ccc(C(F)(F)F)cc2)CC1.[I-]` [Compound 2n, 1,1-diethyl-4-(4-(trifluoromethyl)phenyl)piperazin-1-ium iodide], in series [1], the “functional classification at α7 nAChR” value is reported as “candidate silent agonists”, the Potentiated response was 61.8 ± 7.7 and the Relative response is on record as 0.032 ± 0.003. For the same compound, in series [3], the “activation / partial agonism of α4β2 nAChR” value is recorded as “neither to be partial agonists” and the “antagonist activity at α4β2” value is reported as “nor to have significant antagonist activity”.

In the case of `CC[N+]1(CC)CCN(c2cccc(Br)c2)CC1.[I-]` [Compound 2p, 4-(3-bromophenyl)-1,1-diethylpiperazin-1-ium iodide], in series [1], the “functional classification at α7 nAChR” value was “candidate silent agonists”, the Potentiated response amounted to 10.0±1.7 and the Relative response came to 0.040 ± 0.006. Also, in series [1] (co-application with PNU-120596, meta-substituted series), the “PAM-dependent currents relative to ACh” value was found to be 9.98 fold. Besides, in series [3], the “activation / partial agonism of α4β2 nAChR” value is “neither to be partial agonists” and the “antagonist activity at α4β2” value is “nor to have significant antagonist activity”.

As to `CC[N+]1(CC)CCN(c2ccc(C(N)=O)cc2)CC1.[I-]` [Compound 2t, 4-(4-carbamoylphenyl)-1,1-diethylpiperazin-1-ium iodide], in series [1], the “functional classification at α7 nAChR” value is “candidate silent agonists”, the Potentiated response is recorded as 43.9 ± 8.5 and the Relative response was determined as 0.065 ± 0.009.

Consider `CC[N+]1(CC)CCN(c2cccc(C(N)=O)c2)CC1.[I-]` [Compound 2u, 4-(3-carbamoylphenyl)-1,1-diethylpiperazin-1-ium iodide], for which, in series [1], the “functional classification at α7 nAChR” value is listed as “candidate silent agonists”, the Potentiated response is on record as 50.7 ± 8.5 and the Relative response was 0.056 ± 0.022.

Consider `CC[N+]1(CC)CCC(Nc2ccccc2)CC1.[I-]` [Compound 6, 1,1-diethyl-4-(phenylamino)piperidinium iodide], for which, in series [1], the “functional classification at α7 nAChR” value is given as “no channel activation within experimental error”, the Potentiated response was determined as 5.6 ± 2.1 and the Relative response was 0.002 ± 0.004. Further, the “PAM-dependent response compared to the parent diEPP” value in series [1] (co-application with PNU-120596) was “enhanced PAM-dependent responses”.

As to `CC[N+]1(CC)CCC(=Cc2ccccc2)CC1.[I-]` [Compound 8, 4-benzylidene-1,1-diethylpiperidinium iodide], in series [1], the Potentiated response is listed as 9.9 ± 3.1 and the Relative response amounted to 0.071 ± 0.027. The “PAM-dependent response compared to the parent diEPP” value in series [1] (co-application with PNU-120596) is on record as “enhanced PAM-dependent responses”.

In the case of `O=C(c1ccc(-c2cccc(C(F)(F)F)c2)o1)N1CCN2CCC1CC2` [NS-6740, 1,4-diazabicyclo[3.2.2]nonan-4-yl(5-(3-(trifluoromethyl)phenyl)furan-2-yl) methanone], the “suppression of LPS-stimulated secretion of TNF-α” value in series [4] was “more efficacious than some agonists (including choline)”. In addition, the antinociceptive activity entry in series [5] is “showed antinoceptive activity”.

Source of the values: US11155551B2, “Nicotinic acetylcholine receptor silent agonists” (University of Florida Research Foundation, Inc., priority 2015, dated 2021).
